Patent US8895585B2, “Nicotinamide derivative or salt thereof” (FUJIFILM Corporation, priority 2010, dated 2014)
Like-named read-outs stand apart in the source and are kept apart here.

Assays:
[1] = target: T1, glutathione S-transferase (GST)-fused full-length human Syk protein (Homo sapiens, UniProt P43405); test: Syk enzyme assay; format: biochemical; conditions: Syk enzyme assay, Test Example 1; read-out: IC50 of Syk-inhibitory activity
T1 construct: (GST)-fused full-length human Syk protein; GST (glutathione S-transferase); purchased Carna Biosciences
Outline: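 Baculovirus-expressed enzyme (1.2 ng) was preincubated with compound in HEPES pH 7.0/MgCl2/DTT buffer, 2 min shaking then 13 min at room temperature. Biotin-EDPDYEWPSA-NH2 (0.4 μM final) and ATP (27 μM final) were added for 40 min at room temperature. EDTA stop, streptavidin-XL/PT66-K TR-FRET at 615/665 nm gave IC50.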

THP-1 cells = test: TNFα generation assay; format: cell-based, human
Procedure: THP-1 cells (2×10^5 cells/ml), which were human monocytoid cells, were cultured in the presence of 10 ng/ml IFN-γ (Roche) for 2 days, so that the cells were induced to differentiate into macrophage-like cells. The differentiation-induced THP-1 cells were recovered, and the cells (1×10^6 cell/ml) were then allowed to react with a predetermined concentration of test compound at room temperature for 30 minutes. On the other hand, 100 μl of human IgG (10 μg/ml, SIGMA-ALDRICH) diluted with PBS was added to a 96-well plate, and it was then incubated at room temperature overnight. Thereafter, the resultant was washed with PBS twice to produce a human IgG-coated plate. Subsequently, a cell solution that contained a compound was inoculated on the human IgG-coated plate (5×10^4 cells/well), and it was then cultured for 7 hours. Thereafter, the cultured solution was recovered, and the amount of TNFα secreted into the culture solution was then measured by the ELISA method (Roche/R & D Systems) or the AlphaLISA method (PerkinElmer).

[2] = THP-1 cells, Table 22, read-out: IC50 in TNFα generation assay
[3] = Homo sapiens, THP-1, THP-1 cells, Table 22, read-out: IC50 in TNFα generation assay
[4] = Homo sapiens, THP-1, 7 h, IFN-γ-differentiated THP-1 cells on human IgG-coated plate, cultured 7 hours, read-out: TNFα generation inhibitory activity (IC50)

Molecule	IC50 (THP-1 cells; [4]) [nM]	further results
6-(((2R,3S)-3-aminobutan-2-yl)amino)-2- (3,5-dimethoxyphenyl)amino)-5- fluoronicotinamide 6-(((2S,3R)-3-aminobutan-2-yl)amino)-2- (3,5-dimethoxyphenyl)amino)-5- fluoronicotinamide [Example 006-107]		IC50 [1]: < 10 nM; IC50 (THP-1 cells; [2]): < 65 nM
6-(((2R,3S)-3-aminobutan-2-yl)amino)-2- ((5,6-dimethylpyridin-3-yl)amino)-5- fluoronicotinamide 6-(((2S,3R)-3-aminobutan-2-yl)amino)-2- (5,6-dimethylpyridin-3-yl)amino)-5- fluoronicotinamide [Example 006-194]		IC50 [1]: 10 to 50 nM; IC50 (THP-1 cells; [2]): 65 to 130 nM
C[C@H](N)[C@@H](C)Nc1nc(Nc2ccc3c(cnn3C)c2)c(C(N)=O)cc1F (racemic) [Example 006-109, 6-(((2R,3S)-3-aminobutan-2-yl)amino)-5-fluoro-2-((1-methyl-1H-indazol-5-yl)amino)nicotinamide 6-(((2S,3R)-3-aminobutan-2-yl)amino)-5-fluoro-2-((1-methyl-1H-indazol-5-yl)amino)nicotinamide]		IC50 [1]: < 10 nM; IC50 (THP-1 cells; [3]): 65 to 130 nM
C[C@H](N)[C@@H](C)Nc1nc(Nc2cccc(-n3nccn3)c2)c(C(N)=O)cc1F (racemic) [Example 006-111, 2-((3-(2H-1,2,3-triazol-2-yl)phenyl)amino)-6-(((2R,3S)-3-aminobutan-2-yl)amino)-5-fluoronicotinamide 2-((3-(2H-1,2,3-triazol-2-yl)phenyl)amino)-6-(((2S,3R)-3-aminobutan-2-yl)amino)-5-fluoronicotinamide]		IC50 [1]: < 10 nM; IC50 (THP-1 cells; [3]): 65 to 130 nM
COc1cc(Nc2nc(N[C@H](C)[C@H](C)N)c(F)cc2C(N)=O)cc(OC)n1 (racemic) [Example 006-112, 6-(((2R,3S)-3-aminobutan-2-yl)amino)-2-((2,6-dimethoxypyridin-4-yl)amino)-5-fluoronicotinamide 6-(((2S,3R)-3-aminobutan-2-yl)amino)-2-((2,6-dimethoxypyridin-4-yl)amino)-5-fluoronicotinamide]		IC50 [1]: < 10 nM; IC50 (THP-1 cells; [3]): 65 to 130 nM
NC(=O)c1cc(F)c(N[C@@H]2CCCC[C@@H]2N)nc1Nc1ccc2ncsc2c1 (relative stereo) [Example 6-35, 6-(cis-2-aminocyclohexylamino)-2-((benzo[d]thiazol-6-yl)amino)-5-fluoronicotinamide]	≤ 200	
Cn1ncc2ccc(Nc3nc(N[C@@H]4CCCC[C@@H]4N)c(F)cc3C(N)=O)cc21 (relative stereo) [Example 6-40, 6-(cis-2-aminocyclohexylamino)-5-fluoro-2-((1-methyl-1H-indazol-6-yl)amino)nicotinamide]	≤ 200	
Cc1nc2ccc(Nc3nc(N[C@@H]4CCCC[C@@H]4N)c(F)cc3C(N)=O)cc2o1 (relative stereo) [Example 006-043, 6-(cis-2-aminocyclohexylamino)-5-fluoro-2-((2-methylbenzo[d]oxazol-6-yl)amino)nicotinamide]		IC50 (THP-1 cells; [3]): 130 to 200 nM
Cc1nc2ccc(Nc3nc(N[C@@H]4CCCC[C@@H]4N)c(F)cc3C(N)=O)cc2o1 (relative stereo) [Example 6-43, 6-(cis-2-aminocyclohexylamino)-5-fluoro-2-((2-methylbenzo[d]oxazol-6-yl)amino)nicotinamide]	≤ 200	
Cc1nc2cc(Nc3nc(N[C@@H]4CCCC[C@@H]4N)c(F)cc3C(N)=O)ccc2o1 (relative stereo) [Example 6-46, 6-(cis-2-aminocyclohexylamino)-5-fluoro-2-((2-methylbenzo[d]oxazol-5-yl)amino)nicotinamide]	≤ 200	
Cn1cnc2cc(Nc3nc(N[C@@H]4CCCC[C@@H]4N)c(F)cc3C(N)=O)ccc21 (relative stereo) [Example 6-65, 6-(cis-2-aminocyclohexylamino)-5-fluoro-2-((1-methyl-1H-benzo[d]imidazol-5-yl)amino)nicotinamide]	≤ 200	
Cc1ccc2cc(Nc3nc(N[C@@H]4CCCC[C@@H]4N)c(F)cc3C(N)=O)ccc2n1 (relative stereo) [Example 6-70, 6-(cis-2-aminocyclohexylamino)-5-fluoro-2-((2-methylquinolin-6-yl)amino)nicotinamide]	≤ 200	
NC(=O)c1cc(F)c(N[C@@H]2CCCC[C@@H]2N)nc1Nc1ccc2cccnc2c1 (relative stereo) [Example 6-72, 6-(cis-2-aminocyclohexylamino)-5-fluoro-2-(quinolin-7-ylamino)nicotinamide]	≤ 200	
Cn1ncc2c(Nc3nc(N[C@@H]4CCCC[C@@H]4N)c(F)cc3C(N)=O)cccc21 (relative stereo) [Example 6-75, 6-(cis-2-aminocyclohexylamino)-5-fluoro-2-((1-methyl-1H-indazol-4-yl)amino)nicotinamide]	≤ 200	
Cc1cnc2cc(Nc3nc(N[C@@H]4CCCC[C@@H]4N)c(F)cc3C(N)=O)ccc2n1 (relative stereo) [Example 6-76, 6-(cis-2-aminocyclohexylamino)-5-fluoro-2-((2-methylquinoxalin-6-yl)amino)nicotinamide]	≤ 200	
NC(=O)c1cc(F)c(N[C@@H]2CCCC[C@@H]2N)nc1Nc1ccc2c(cnn2CCN2CCCC2)c1 (relative stereo) [Example 6-82, 6-(cis-2-aminocyclohexylamino)-5-fluoro-2-((1-(2-(pyrrolidin-1-yl)ethyl)-1H-indazol-5-yl)amino)nicotinamide]	≤ 200	
NC(=O)c1cc(F)c(N[C@@H]2CCCC[C@@H]2N)nc1Nc1ccc2nn(CCN3CCCC3)cc2c1 (relative stereo) [Example 6-83, 6-(cis-2-aminocyclohexylamino)-5-fluoro-2-((2-(2-(pyrrolidin-1-yl)ethyl)-2H-indazol-5-yl)amino)nicotinamide]	≤ 200	
NC(=O)c1cc(F)c(N[C@@H]2CCCC[C@@H]2N)nc1Nc1ccc2[nH]ncc2c1 (relative stereo) [Example 6-87, 6-(cis-2-aminocyclohexylamino)-5-fluoro-2-((1H-indazol-5-yl)amino)nicotinamide]	≤ 200	
NC(=O)c1cc(F)c(N[C@@H]2CCCC[C@@H]2N)nc1Nc1ccnc2c1ccn2CCN1CCCC1 [Example 004-023]		IC50 (THP-1 cells; [3]): 65 to 130 nM
NCCNc1nc(Nc2ccc3ncsc3c2)c(C(N)=O)cc1F [Example 6-44, 6-(2-aminoethylamino)-2-((benzo[d]thiazol-6-yl)amino)-5-fluoro-nicotinamide]	≤ 200	
CC(C)C[C@H](CN)Nc1nc(Nc2ccc3ncccc3c2)c(C(N)=O)cc1F [Example 006-117, (R)-6-((1-amino-4-methylpentan-2-yl)amino)-5-fluoro-2-((quinolin-6-yl)amino)nicotinamide]		IC50 (THP-1 cells; [3]): < 65 nM
NCCNc1nc(Nc2cnc3ccccc3c2)c(C(N)=O)cc1F [Example 8-11, 6-(2-aminoethylamino)-5-fluoro-2-(quinolin-3-ylamino)nicotinamide]		IC50 (THP-1 cells; Homo sapiens, THP-1, 7 h, read-out: TNFα generation inhibitory activity (IC50)): ≤ 200 nM

The next lines start with results.

IC50 (THP-1 cells; [4]) [nM]	Molecule	further results
≤ 200	NC(=O)c1cc(F)c(N[C@@H]2CCCC[C@@H]2N)nc1Nc1ccc2ncccc2c1 (relative stereo) [Example 8-6, 6-(cis-2-aminocyclohexylamino)-5-fluoro-2-(quinolin-6-ylamino)-nicotinamide]	
≤ 200	NC(=O)c1cc(F)c(N[C@@H]2CCCC[C@@H]2N)nc1Nc1cccc(Cl)c1 (relative stereo) [Example 8-8, 6-(cis-2-aminocyclohexylamino)-2-((3-chlorophenyl)amino)-5-fluoro-nicotinamide]	
≤ 200	Cc1cncc(Nc2nc(N[C@@H]3CCCC[C@@H]3N)c(Br)cc2C(N)=O)c1 (relative stereo) [Example 35-7, 6-(cis-2-aminocyclohexylamino)-5-bromo-2-((5-methylpyridin-3-yl)amino)nicotinamide]	
≤ 200	CC[C@@H](Nc1nc(Nc2ccc3ncccc3c2)c(C(N)=O)cc1F)C(N)=O [Example 12-31, 6-(((2R)-1-amino-1-oxobutan-2-yl)amino)-5-fluoro-2-(quinolin-6-ylamino)nicotinamide]	
≤ 200	NC(=O)c1cc(F)c(NC[C@@H](N)c2ccccc2)nc1Nc1ccc2ncccc2c1 [Example 14-5, 6-(((2S)-2-amino-2-phenylethyl)amino)-5-fluoro-2-(quinolin-6-ylamino)nicotinamide]	
≤ 200	COC[C@H](N)CNc1nc(Nc2ccc3ncccc3c2)c(C(N)=O)cc1F [Example 14-6, 6-(((2R)-2-amino-3-methoxypropyl)amino)-5-fluoro-2-(quinolin-6-ylamino)nicotinamide]	
≤ 200	CC(C)C[C@H](N)CNc1nc(Nc2ccc3ncccc3c2)c(C(N)=O)cc1F [Example 14-10, 6-(((2S)-2-amino-4-methylpentyl)amino)-5-fluoro-2-(quinolin-6-ylamino)nicotinamide]	
≤ 200	COc1cc(Nc2nc(N[C@@H]3CCCC[C@@H]3N)c(F)cc2C(N)=O)cc(OC)c1 [Example 22-5, 6-((1R,2S)-2-aminocyclohexylamino)-2-(3,5-dimethoxyphenylamino)-5-fluoronicotinamide]	
